{"source": "patent US20220257571A1", "about": "“INHIBITOR OF MAP KINASE INTERACTING SERINE/THREONINE KINASE 1 (MNK1) AND MAP KINASE INTERACTING SERINE/THREONINE KINASE 2 (MNK2), CANCER THERAPY AND THERAPEUTIC COMBINATIONS” (FUNPACIÓ HOSPITAL UNIVERSITARI VALL D'HEBRON - INSTITUT DE …, priority 2019, published 2022)", "key": {"MCF7 cells": {"system": "MCF7 cells", "assay": "cell growth of MCF7 cells with tamoxifen (crystal violet)", "type": "cell-based", "conditions": "combination with tamoxifen", "description": "(§1) Commercially available MDA-MB-231, MDA-MB-468, MCF7 and A375M, IMR90 (IMR-90 (ATCC® CCL-186TH) cells were grown at 37° C. and 5% CO2 in DMEM medium (Dulbecco's Modified Eagle Medium, 4.5 g/I glucose; 30 mg/I L-Glutamine (Gibco)) supplemented with 10% foetal bovine serum, 100 U/ml penicillin and 100 μg/ml streptomycin.\nCell growth in the presence of EB1, tamoxifen or the combination of both inhibitors was measured by crystal violet. Data were normalized to the vehicle control."}, "[1]": {"system": "eIF4E phosphorylation in melanoma cells (A375M)", "assay": "titration of eIF4E phosphorylation in A375M cells", "type": "cell-based", "description": "as §1\n(§2) Inhibition of eIF4E phosphorylation was quantified by Western Blot. Cells were seeded in 60 mm plates (700,000 cells for 24 h, 500,000 cells for 48 h and 300,000 cells for 72 h).\n(§3) After 24 h, the treatments were added. The stocks of compounds were prepared in […] at a concentration 200 times more concentrated than the treatment concentration. Thus, in all cases, the final concentration of DMSO in the medium was 0.5%.\nAfter incubation, proteins were removed and Western Blot was performed. On ice, the plates were washed with PBS and the cells were lysed with 60 μl lysis buffer (50 mM Tris, 200 mM NaCl, 5 mM EDTA, 0.1% Triton 100×, pH 7.5 supplemented with protease inhibitors (EDTA-free Protease Inhibitor Cocktail Set III, Calbiochem) and phosphatase inhibitors (Phosphatase Inhibitor Cocktail Set II, Calbiochem)). The samples were centrifuged at 15,000 g and the supernatant was quantified by the Bradford method. […] Selectivity against MNK was analysed with ERK, p-ERK, MNK1, p-MNK1, 4EBP1 and p-4EBP1 antibodies. […]"}, "[2]": {"system": "eIF4E phosphorylation in MCF10 cells", "assay": "inhibition of eIF4E phosphorylation by Western Blot in MCF10 cells", "type": "cell-based", "conditions": "Homo sapiens; immortalised non-tumour breast cells (MCF10)", "description": "(§4) MCF10A cells (also commercially available) were grown in DMEM/F-12 medium (Dulbecco's Modified Eagle Medium: 3.125 g/L D-Glucosa, 365 mg/L L-Glutamine, Nutrient Mixture F-12 (Gibco)) supplemented with 10% FBS, 100 U/ml penicillin, 100 μg/ml streptomycin, 1% L-Glutamine (Cambrex), 10 ng/ml choleric toxin (Sigma-Aldrich), 0.005 mg/ml insulin (Sigma), 100 ng/ml hydrocortisone (Sigma) and 20 ng/ml EGF (Epidermal growth factor, Sigma).\nas §2, §3\nAfter incubation, proteins were removed and Western Blot was performed. […] The samples were centrifuged at 15,000 g and the supernatant was quantified by the Bradford method. […] Selectivity against MNK was analysed with ERK, p-ERK, MNK1, p-MNK1, 4EBP1 and p-4EBP1 antibodies."}, "[3]": {"molecular_target": "T1, EphA4 receptor tyrosine kinase (Homo sapiens, UniProt P54764)", "T1 construct": "purchased Proqinase", "T1 sequence (P54764 20-986)": "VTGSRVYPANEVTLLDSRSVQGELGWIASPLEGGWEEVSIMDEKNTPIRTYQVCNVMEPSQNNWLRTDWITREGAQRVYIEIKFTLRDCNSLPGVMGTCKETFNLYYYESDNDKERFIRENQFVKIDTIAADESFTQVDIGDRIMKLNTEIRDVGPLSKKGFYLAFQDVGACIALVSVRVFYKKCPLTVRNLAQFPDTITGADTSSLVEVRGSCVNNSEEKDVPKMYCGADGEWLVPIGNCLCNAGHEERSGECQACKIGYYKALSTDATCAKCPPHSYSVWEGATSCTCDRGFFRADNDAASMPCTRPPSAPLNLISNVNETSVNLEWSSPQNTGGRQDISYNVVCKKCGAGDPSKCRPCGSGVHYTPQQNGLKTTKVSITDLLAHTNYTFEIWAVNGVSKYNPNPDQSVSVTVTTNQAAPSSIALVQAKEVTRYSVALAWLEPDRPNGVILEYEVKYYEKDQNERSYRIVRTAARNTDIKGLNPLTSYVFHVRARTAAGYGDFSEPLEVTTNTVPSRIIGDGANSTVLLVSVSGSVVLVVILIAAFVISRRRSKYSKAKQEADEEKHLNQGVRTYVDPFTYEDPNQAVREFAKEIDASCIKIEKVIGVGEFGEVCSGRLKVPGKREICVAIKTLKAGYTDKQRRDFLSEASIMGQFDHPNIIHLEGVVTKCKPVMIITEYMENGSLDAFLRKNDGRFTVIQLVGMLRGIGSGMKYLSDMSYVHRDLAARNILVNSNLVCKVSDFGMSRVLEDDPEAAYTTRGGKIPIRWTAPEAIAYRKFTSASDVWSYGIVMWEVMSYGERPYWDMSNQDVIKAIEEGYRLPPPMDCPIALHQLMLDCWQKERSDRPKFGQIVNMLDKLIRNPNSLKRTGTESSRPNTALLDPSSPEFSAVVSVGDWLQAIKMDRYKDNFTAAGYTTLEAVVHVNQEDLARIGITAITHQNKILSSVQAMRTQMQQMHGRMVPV", "assay": "inhibitory test of EphA4 in the kinase panel", "type": "biochemical", "description": "The kinase activity of the compound was measured by a radiometric kinase assay (^33PanQinase® Activity Assay) carried out by Proqinase (www.proqinase.com).\nThe assays were carried out in 96-well FlashPlates™ by PerkinElmer (Boston, Mass., USA) with a reaction volume of 50 μl. The reaction cocktail was pipetted in 4 steps: (1) 20 μl buffer, (2) 5 μl ATP solution (in H2O), (3) 5 μl compound (in 10% DMSO) and (4) 20 μl enzyme/substrate mixture. Lastly, the cocktail contained 70 mM HEPES-NaOH pH 7.5, 3 mM MgCl2, 3 mM MnCl2, 3 μM sodium orthovanadate, 1.2 mM DTT, 50 μg/ml PEG20000, ATP (1 μM for MNK1 and 0.3 μM for MNK2), [γ-^33P]-ATP (approx. […] per well), protein kinase (variable amounts depending on the batch) and substrate (2 μg/50 μl).\nReaction cocktails were incubated at 30° C. for 60 minutes. The reaction was stopped with 50 μl of 2% H3PO4 (v/v), the plates were sucked, they were washed twice with 200 μl of 0.9% NaCl (w/v) and the incorporation of ^33Pi (MicroBeta microplate scintillation counter, Wallac) was determined. […]\nThe residual activity (in %) for each well of a particular plate was calculated using the following formula (wherein high control is the kinase activity in absence of an inhibitor and low control is the radioactivity value of the substrate in absence of a kinase).\nTo study selectivity, residual activity was measured at 1 μM from a 320-kinase panel."}, "[4]": {"system": "22Rv1 castration resistant prostate cancer cells", "assay": "cell viability of 22Rv1 cells, EB1 with Enzalutamide", "type": "cell-based", "conditions": "22Rv1, co-treatment with Enzalutamide, 72 h", "description": "Cell viability under combined inhibition of AR and eIF4E phosphorylation was assayed. […] (B) Number of viable cells after 72 h treatment with pairwise combinations reported as percentage relative to control. (E) Cell viability data presented as a grid displaying the percentage of affected cells by each pairwise combination of drug doses. (C) Drug combinations with the strongest inhibition in cell viability (bars; mean±SEM; n=3. *p<0.05, **p<0.01 two-tailed Student's test). (F) Combination index (CI) presented as a grid for each pairwise combination of drug doses calculated by the Chou-Talalay method at non-constant ratio. (D and I) Fraction affected vs. combination index (CI) plots."}, "MCF10 cells": {"system": "MCF10 cells", "assay": "in vitro proliferation assay (crystal violet), MCF10", "type": "cell-based", "conditions": "non-tumour cells MCF10, concentrations necessary to inhibit MNK activity", "description": "as §4\nIn 96-well plates, 5000 cells were seeded for each condition. After 24 h, the cells were treated with the compound at the corresponding concentration. The stocks of compounds were prepared in 100% DMSO at a concentration 200 times more concentrated than the treatment concentration. Thus, in all cases, the final concentration of DMSO in the medium is 0.5%. After incubation, the medium was removed and the cells were fixed with 4% PFA (100 μl per well) for 30 minutes. Two washes with PBS were performed.\nCells were stained with crystal violet (0.5% in EtOH): 100 μl were added to each well, stirred for 15 minutes, washed with water and left to dry. The content of each well was dissolved in 200 μl of 15% AcOH and the absorbance thereof was measured at 595 nm."}, "[5]": {"system": "eIF4E phosphorylation, AR and AR-V7 in 22Rv1 cells", "assay": "western blot analysis in 22Rv1 cells", "type": "cell-based", "conditions": "for levels of AR, AR-V7 and eIF4E phosphorylation: 22Rv1, 72 h"}}, "data": [{"smiles": "Nc1n[nH]c2nc(-c3ccccc3)cc(-c3ccccc3)c12", "note": "[EB1, 4,6-diphenyl-1H-pyrazolo[3,4-b]pyridin-3-amine]", "values": [{"measurement": "sensitivity of MCF7 cells to tamoxifen", "setting": "MCF7 cells", "result": "increased sensitivity to tamoxifen"}, {"measurement": "activity as MNK inhibitor (eIF4E phosphorylation)", "setting": "[1]", "result": "active"}, {"measurement": "EC50", "setting": "[2]", "result": 700, "unit": "nM"}, {"measurement": "inhibition at 1 µM", "setting": "[3]", "result": 10, "unit": "%"}, {"measurement": "effect of co-treatment on cell viability", "setting": "[4]", "result": "synergistic effect"}, {"measurement": "effect on cell growth", "setting": "MCF10 cells", "result": "does not affect the cell growth"}, {"measurement": "inhibition of eIF4E phosphorylation", "setting": "[5]; 22Rv1, 24 h EB1 treatment", "result": "Dose dependent inhibition"}, {"measurement": "levels of AR, AR-V7 and eIF4E phosphorylation", "setting": "[5]; EB1 alone", "result": "reduction of AR, its splice variant AR-V7 and eIF4E phosphorylation"}, {"measurement": "levels of AR, AR-V7 and eIF4E phosphorylation", "setting": "[5]; combination of EB1 and enzalutamide", "result": "more pronounced"}]}]}
